Laboratory results as given in ChEMBL document CHEMBL1133358, “Design, synthesis, and in vitro biological activity of benzimidazole based factor Xa inhibitors” (Bioorg Med Chem Lett, 2000).

target: Prothrombin (Homo sapiens, UniProt P00734)
Description: In vitro inhibitory activity against human coagulation factor II

Structure (SMILES)	Ki [nM]
CCOC(=O)CCC(=O)N(c1ccc2c(c1)nc(C)n2Cc1ccc2ccc(C(=N)N)cc2c1)C1CCN(C(C)=N)CC1	5000
CC(=N)N1CCC(N(CCCC(=O)O)c2ccc3c(c2)nc(C)n3Cc2ccc3ccc(C(=N)N)cc3c2)CC1	5000
CC(=N)N1CCC(Oc2ccc3c(c2)ncn3Cc2ccc3ccc(C(=N)N)cc3c2)CC1	> 5000
COC(=O)CN(c1ccc2nc(C)n(Cc3ccc4ccc(C(=N)N)cc4c3)c2c1)C1CCN(C(C)=N)CC1	98
CC(=N)N1CCC(Oc2ccc3c(c2)nc(CCC(N)=O)n3Cc2ccc3ccc(C(=N)N)cc3c2)CC1	> 5000
CC(=N)N1CCC(N(C(=O)CCC(=O)O)c2ccc3nc(C)n(Cc4ccc5ccc(C(=N)N)cc5c4)c3c2)CC1	5000
CC(=N)N1CCC(Oc2ccc3nc(C)n(Cc4ccc5ccc(C(=N)N)cc5c4)c3c2)CC1	230
CC(=N)N1CCC(N(CC(C)C(=O)O)c2ccc3nc(C)n(Cc4ccc5ccc(C(=N)N)cc5c4)c3c2)CC1 (stereo unspecified)	650
CC(=N)N1CCC(Oc2ccc3c(c2)nc(C(C)(C)C)n3Cc2ccc3ccc(C(=N)N)cc3c2)CC1	950
CC(=N)N1CCC(Oc2ccc3ncn(Cc4ccc5ccc(C(=N)N)cc5c4)c3c2)CC1	810
CCCCc1nc2cc(OC3CCN(C(C)=N)CC3)ccc2n1Cc1ccc2ccc(C(=N)N)cc2c1	2000
CCCc1nc2ccc(OC3CCN(C(C)=N)CC3)cc2n1Cc1ccc2ccc(C(=N)N)cc2c1	70
CC(=N)N1CCC(N(CC(C)C(=O)O)c2ccc3c(c2)nc(C)n3Cc2ccc3ccc(C(=N)N)cc3c2)CC1 (stereo unspecified)	5000
CC(=N)N1CCC(Oc2ccc3nc(C(C)C)n(Cc4ccc5ccc(C(=N)N)cc5c4)c3c2)CC1	32
CC(=N)N1CCC(N(CCCC(=O)O)c2ccc3nc(C)n(Cc4ccc5ccc(C(=N)N)cc5c4)c3c2)CC1	5000
CCCCc1nc2ccc(OC3CCN(C(C)=N)CC3)cc2n1Cc1ccc2ccc(C(=N)N)cc2c1	230
CCc1nc2cc(OC3CCN(C(C)=N)CC3)ccc2n1Cc1ccc2ccc(C(=N)N)cc2c1	2100

Structure (SMILES)	Ki [nM]
COC(=O)CN(c1ccc2c(c1)nc(C)n2Cc1ccc2ccc(C(=N)N)cc2c1)C1CCN(C(C)=N)CC1	2700
CCOC(=O)CCC(=O)N(c1ccc2nc(C)n(Cc3ccc4ccc(C(=N)N)cc4c3)c2c1)C1CCN(C(C)=N)CC1	4600
COC(=O)C(C)CN(c1ccc2c(c1)nc(C)n2Cc1ccc2ccc(C(=N)N)cc2c1)C1CCN(C(C)=N)CC1 (stereo unspecified)	5000
COC(=O)C(C)CN(c1ccc2nc(C)n(Cc3ccc4ccc(C(=N)N)cc4c3)c2c1)C1CCN(C(C)=N)CC1 (stereo unspecified)	300
COC(=O)CCCN(c1ccc2nc(C)n(Cc3ccc4ccc(C(=N)N)cc4c3)c2c1)C1CCN(C(C)=N)CC1	4610
COC(=O)CCCN(c1ccc2c(c1)nc(C)n2Cc1ccc2ccc(C(=N)N)cc2c1)C1CCN(C(C)=N)CC1	6000
CCC(C)c1nc2cc(OC3CCN(C(C)=N)CC3)ccc2n1Cc1ccc2ccc(C(=N)N)cc2c1 (stereo unspecified)	2300
CC(=N)N1CCC(Oc2ccc3nc(CCC(N)=O)n(Cc4ccc5ccc(C(=N)N)cc5c4)c3c2)CC1	590
CCc1nc2ccc(OC3CCN(C(C)=N)CC3)cc2n1Cc1ccc2ccc(C(=N)N)cc2c1	60
CC(=N)N1CCC(Oc2ccc3c(c2)nc(CCC(=O)O)n3Cc2ccc3ccc(C(=N)N)cc3c2)CC1	> 5000
CCCc1nc2cc(OC3CCN(C(C)=N)CC3)ccc2n1Cc1ccc2ccc(C(=N)N)cc2c1	2400
CCC(C)c1nc2ccc(OC3CCN(C(C)=N)CC3)cc2n1Cc1ccc2ccc(C(=N)N)cc2c1 (stereo unspecified)	160
CC(=N)N1CCC(N(CC(N)=O)c2ccc3nc(C)n(Cc4ccc5ccc(C(=N)N)cc5c4)c3c2)CC1	490
CC(=N)N1CCC(Oc2ccc3nc(CCC(=O)O)n(Cc4ccc5ccc(C(=N)N)cc5c4)c3c2)CC1	2670
CC(=N)N1CCC(Oc2ccc3nc(C(C)(C)C)n(Cc4ccc5ccc(C(=N)N)cc5c4)c3c2)CC1	48
CC(=N)N1CCC(Oc2ccc3c(c2)nc(C)n3Cc2ccc3ccc(C(=N)N)cc3c2)CC1	3900

target: T1, Serine protease 1 (Bos taurus, UniProt P00760); test: In vitro inhibitory activity against bovine cationic trypsin
T1 sequence (P00760 whole entry): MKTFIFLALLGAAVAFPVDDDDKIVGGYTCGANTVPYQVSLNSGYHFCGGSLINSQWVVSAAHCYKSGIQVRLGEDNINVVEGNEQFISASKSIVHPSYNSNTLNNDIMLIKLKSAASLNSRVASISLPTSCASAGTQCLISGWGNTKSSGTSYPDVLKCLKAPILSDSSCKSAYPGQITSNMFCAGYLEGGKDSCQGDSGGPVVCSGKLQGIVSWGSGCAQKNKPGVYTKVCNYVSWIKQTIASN

Structure (SMILES)	Ki [nM]
CCOC(=O)CCC(=O)N(c1ccc2c(c1)nc(C)n2Cc1ccc2ccc(C(=N)N)cc2c1)C1CCN(C(C)=N)CC1	800
CC(=N)N1CCC(N(CCCC(=O)O)c2ccc3c(c2)nc(C)n3Cc2ccc3ccc(C(=N)N)cc3c2)CC1	800
CC(=N)N1CCC(Oc2ccc3c(c2)ncn3Cc2ccc3ccc(C(=N)N)cc3c2)CC1	8.2
COC(=O)CN(c1ccc2nc(C)n(Cc3ccc4ccc(C(=N)N)cc4c3)c2c1)C1CCN(C(C)=N)CC1	11
CC(=N)N1CCC(Oc2ccc3c(c2)nc(CCC(N)=O)n3Cc2ccc3ccc(C(=N)N)cc3c2)CC1	10
CC(=N)N1CCC(N(C(=O)CCC(=O)O)c2ccc3nc(C)n(Cc4ccc5ccc(C(=N)N)cc5c4)c3c2)CC1	670
CC(=N)N1CCC(N(CC(C)C(=O)O)c2ccc3nc(C)n(Cc4ccc5ccc(C(=N)N)cc5c4)c3c2)CC1 (stereo unspecified)	47
CC(=N)N1CCC(Oc2ccc3c(c2)nc(C(C)(C)C)n3Cc2ccc3ccc(C(=N)N)cc3c2)CC1	18
CC(=N)N1CCC(Oc2ccc3ncn(Cc4ccc5ccc(C(=N)N)cc5c4)c3c2)CC1	50
CCCCc1nc2cc(OC3CCN(C(C)=N)CC3)ccc2n1Cc1ccc2ccc(C(=N)N)cc2c1	14
CC(=N)N1CCC(Oc2ccc3c(c2)nc(C(C)C)n3Cc2ccc3ccc(C(=N)N)cc3c2)CC1	16
CCCc1nc2ccc(OC3CCN(C(C)=N)CC3)cc2n1Cc1ccc2ccc(C(=N)N)cc2c1	6.8
CC(=N)N1CCC(N(CC(C)C(=O)O)c2ccc3c(c2)nc(C)n3Cc2ccc3ccc(C(=N)N)cc3c2)CC1 (stereo unspecified)	120
CC(=N)N1CCC(Oc2ccc3nc(C(C)C)n(Cc4ccc5ccc(C(=N)N)cc5c4)c3c2)CC1	5.7
CC(=N)N1CCC(N(CCCC(=O)O)c2ccc3nc(C)n(Cc4ccc5ccc(C(=N)N)cc5c4)c3c2)CC1	670
CCCCc1nc2ccc(OC3CCN(C(C)=N)CC3)cc2n1Cc1ccc2ccc(C(=N)N)cc2c1	5.7
CCc1nc2cc(OC3CCN(C(C)=N)CC3)ccc2n1Cc1ccc2ccc(C(=N)N)cc2c1	17

Structure (SMILES)	Ki [nM]
COC(=O)CN(c1ccc2c(c1)nc(C)n2Cc1ccc2ccc(C(=N)N)cc2c1)C1CCN(C(C)=N)CC1	7.6
CCOC(=O)CCC(=O)N(c1ccc2nc(C)n(Cc3ccc4ccc(C(=N)N)cc4c3)c2c1)C1CCN(C(C)=N)CC1	256
COC(=O)C(C)CN(c1ccc2c(c1)nc(C)n2Cc1ccc2ccc(C(=N)N)cc2c1)C1CCN(C(C)=N)CC1 (stereo unspecified)	160
COC(=O)C(C)CN(c1ccc2nc(C)n(Cc3ccc4ccc(C(=N)N)cc4c3)c2c1)C1CCN(C(C)=N)CC1 (stereo unspecified)	41
COC(=O)CCCN(c1ccc2nc(C)n(Cc3ccc4ccc(C(=N)N)cc4c3)c2c1)C1CCN(C(C)=N)CC1	260
COC(=O)CCCN(c1ccc2c(c1)nc(C)n2Cc1ccc2ccc(C(=N)N)cc2c1)C1CCN(C(C)=N)CC1	60
CCC(C)c1nc2cc(OC3CCN(C(C)=N)CC3)ccc2n1Cc1ccc2ccc(C(=N)N)cc2c1 (stereo unspecified)	13
CC(=N)N1CCC(Oc2ccc3nc(CCC(N)=O)n(Cc4ccc5ccc(C(=N)N)cc5c4)c3c2)CC1	4.4
CCc1nc2ccc(OC3CCN(C(C)=N)CC3)cc2n1Cc1ccc2ccc(C(=N)N)cc2c1	7.7
CC(=N)N1CCC(Oc2ccc3c(c2)nc(CCC(=O)O)n3Cc2ccc3ccc(C(=N)N)cc3c2)CC1	14
CCCc1nc2cc(OC3CCN(C(C)=N)CC3)ccc2n1Cc1ccc2ccc(C(=N)N)cc2c1	16
CCC(C)c1nc2ccc(OC3CCN(C(C)=N)CC3)cc2n1Cc1ccc2ccc(C(=N)N)cc2c1 (stereo unspecified)	10
CC(=N)N1CCC(N(CC(N)=O)c2ccc3nc(C)n(Cc4ccc5ccc(C(=N)N)cc5c4)c3c2)CC1	28
CC(=N)N1CCC(Oc2ccc3nc(CCC(=O)O)n(Cc4ccc5ccc(C(=N)N)cc5c4)c3c2)CC1	18
CC(=N)N1CCC(Oc2ccc3nc(C(C)(C)C)n(Cc4ccc5ccc(C(=N)N)cc5c4)c3c2)CC1	7
CC(=N)N1CCC(Oc2ccc3c(c2)nc(C)n3Cc2ccc3ccc(C(=N)N)cc3c2)CC1	16

target: Coagulation factor X (Homo sapiens, UniProt P00742); test: In vitro inhibitory activity against human Coagulation factor X
Sequence (P00742 41-179 limits assumed): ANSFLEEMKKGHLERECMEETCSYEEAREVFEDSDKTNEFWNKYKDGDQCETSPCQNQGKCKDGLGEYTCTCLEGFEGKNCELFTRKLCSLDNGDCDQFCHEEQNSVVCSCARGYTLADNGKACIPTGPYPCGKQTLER
Sequence (P00742 235-488 limits assumed): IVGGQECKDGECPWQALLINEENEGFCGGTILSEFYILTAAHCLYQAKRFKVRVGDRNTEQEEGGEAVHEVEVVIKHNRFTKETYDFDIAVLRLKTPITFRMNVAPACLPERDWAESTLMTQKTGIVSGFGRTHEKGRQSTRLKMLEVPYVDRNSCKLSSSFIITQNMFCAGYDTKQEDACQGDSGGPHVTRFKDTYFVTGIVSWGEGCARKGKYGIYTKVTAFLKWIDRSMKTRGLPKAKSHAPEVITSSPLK

Structure (SMILES)	Ki [nM]
CCOC(=O)CCC(=O)N(c1ccc2c(c1)nc(C)n2Cc1ccc2ccc(C(=N)N)cc2c1)C1CCN(C(C)=N)CC1	370
CC(=N)N1CCC(N(CCCC(=O)O)c2ccc3c(c2)nc(C)n3Cc2ccc3ccc(C(=N)N)cc3c2)CC1	370
CC(=N)N1CCC(Oc2ccc3c(c2)ncn3Cc2ccc3ccc(C(=N)N)cc3c2)CC1	6.3
COC(=O)CN(c1ccc2nc(C)n(Cc3ccc4ccc(C(=N)N)cc4c3)c2c1)C1CCN(C(C)=N)CC1	0.3
CC(=N)N1CCC(Oc2ccc3c(c2)nc(CCC(N)=O)n3Cc2ccc3ccc(C(=N)N)cc3c2)CC1	3.6
CC(=N)N1CCC(N(C(=O)CCC(=O)O)c2ccc3nc(C)n(Cc4ccc5ccc(C(=N)N)cc5c4)c3c2)CC1	417
CC(=N)N1CCC(N(CC(C)C(=O)O)c2ccc3nc(C)n(Cc4ccc5ccc(C(=N)N)cc5c4)c3c2)CC1 (stereo unspecified)	3
CC(=N)N1CCC(Oc2ccc3c(c2)nc(C(C)(C)C)n3Cc2ccc3ccc(C(=N)N)cc3c2)CC1	2
CC(=N)N1CCC(Oc2ccc3ncn(Cc4ccc5ccc(C(=N)N)cc5c4)c3c2)CC1	2.9
CCCCc1nc2cc(OC3CCN(C(C)=N)CC3)ccc2n1Cc1ccc2ccc(C(=N)N)cc2c1	2.8
CC(=N)N1CCC(Oc2ccc3c(c2)nc(C(C)C)n3Cc2ccc3ccc(C(=N)N)cc3c2)CC1	2
CCCc1nc2ccc(OC3CCN(C(C)=N)CC3)cc2n1Cc1ccc2ccc(C(=N)N)cc2c1	0.23
CC(=N)N1CCC(N(CC(C)C(=O)O)c2ccc3c(c2)nc(C)n3Cc2ccc3ccc(C(=N)N)cc3c2)CC1 (stereo unspecified)	80
CC(=N)N1CCC(Oc2ccc3nc(C(C)C)n(Cc4ccc5ccc(C(=N)N)cc5c4)c3c2)CC1	0.026
CC(=N)N1CCC(N(CCCC(=O)O)c2ccc3nc(C)n(Cc4ccc5ccc(C(=N)N)cc5c4)c3c2)CC1	420
CCCCc1nc2ccc(OC3CCN(C(C)=N)CC3)cc2n1Cc1ccc2ccc(C(=N)N)cc2c1	0.23

Structure (SMILES)	Ki [nM]
CCc1nc2cc(OC3CCN(C(C)=N)CC3)ccc2n1Cc1ccc2ccc(C(=N)N)cc2c1	4
CCOC(=O)CCC(=O)N(c1ccc2nc(C)n(Cc3ccc4ccc(C(=N)N)cc4c3)c2c1)C1CCN(C(C)=N)CC1	300
COC(=O)C(C)CN(c1ccc2c(c1)nc(C)n2Cc1ccc2ccc(C(=N)N)cc2c1)C1CCN(C(C)=N)CC1 (stereo unspecified)	80
COC(=O)C(C)CN(c1ccc2nc(C)n(Cc3ccc4ccc(C(=N)N)cc4c3)c2c1)C1CCN(C(C)=N)CC1 (stereo unspecified)	1.1
COC(=O)CCCN(c1ccc2nc(C)n(Cc3ccc4ccc(C(=N)N)cc4c3)c2c1)C1CCN(C(C)=N)CC1	300
COC(=O)CCCN(c1ccc2c(c1)nc(C)n2Cc1ccc2ccc(C(=N)N)cc2c1)C1CCN(C(C)=N)CC1	30
CCC(C)c1nc2cc(OC3CCN(C(C)=N)CC3)ccc2n1Cc1ccc2ccc(C(=N)N)cc2c1 (stereo unspecified)	3.3
CC(=N)N1CCC(Oc2ccc3nc(CCC(N)=O)n(Cc4ccc5ccc(C(=N)N)cc5c4)c3c2)CC1	1
CCc1nc2ccc(OC3CCN(C(C)=N)CC3)cc2n1Cc1ccc2ccc(C(=N)N)cc2c1	0.087
CC(=N)N1CCC(Oc2ccc3c(c2)nc(CCC(=O)O)n3Cc2ccc3ccc(C(=N)N)cc3c2)CC1	5.9
CCCc1nc2cc(OC3CCN(C(C)=N)CC3)ccc2n1Cc1ccc2ccc(C(=N)N)cc2c1	4.5
CCC(C)c1nc2ccc(OC3CCN(C(C)=N)CC3)cc2n1Cc1ccc2ccc(C(=N)N)cc2c1 (stereo unspecified)	0.12
CC(=N)N1CCC(N(CC(N)=O)c2ccc3nc(C)n(Cc4ccc5ccc(C(=N)N)cc5c4)c3c2)CC1	0.46
CC(=N)N1CCC(Oc2ccc3nc(CCC(=O)O)n(Cc4ccc5ccc(C(=N)N)cc5c4)c3c2)CC1	1.3
CC(=N)N1CCC(Oc2ccc3nc(C(C)(C)C)n(Cc4ccc5ccc(C(=N)N)cc5c4)c3c2)CC1	0.046
CC(=N)N1CCC(Oc2ccc3c(c2)nc(C)n3Cc2ccc3ccc(C(=N)N)cc3c2)CC1	6.2

organism: Homo sapiens; test: Concentration required to double the prothrombin based clotting time in human plasma; format: functional

Structure (SMILES)	PT [nM]
CC(=N)N1CCC(Oc2ccc3nc(C)n(Cc4ccc5ccc(C(=N)N)cc5c4)c3c2)CC1	350
CC(=N)N1CCC(Oc2ccc3ncn(Cc4ccc5ccc(C(=N)N)cc5c4)c3c2)CC1	450
CCCc1nc2ccc(OC3CCN(C(C)=N)CC3)cc2n1Cc1ccc2ccc(C(=N)N)cc2c1	290
CC(=N)N1CCC(Oc2ccc3nc(C(C)C)n(Cc4ccc5ccc(C(=N)N)cc5c4)c3c2)CC1	68
CCCCc1nc2ccc(OC3CCN(C(C)=N)CC3)cc2n1Cc1ccc2ccc(C(=N)N)cc2c1	625
CCc1nc2ccc(OC3CCN(C(C)=N)CC3)cc2n1Cc1ccc2ccc(C(=N)N)cc2c1	130
CCC(C)c1nc2ccc(OC3CCN(C(C)=N)CC3)cc2n1Cc1ccc2ccc(C(=N)N)cc2c1 (stereo unspecified)	280
CC(=N)N1CCC(Oc2ccc3nc(C(C)(C)C)n(Cc4ccc5ccc(C(=N)N)cc5c4)c3c2)CC1	260
